# Assay results as given in patent US20250122193A1, “NOVEL PYRIDOCARBAZOLIUM COMPOUNDS AND MEDICAL USES THEREOF” (MyCural Therapeutics, priority 2021, published 2025).
# Tests used:
# A375 melanoma cells = assay: Apo-Tox Glo Triplex assay, A375; assay type: cell-based; conditions: 3 days of treatment
# Description: (§1) FIG. 4: MYCMI-7 induces apoptosis in malignant cells and growth arrest in normal cells. A) Cell cycle distribution analysis by flow cytometry of MYC-regulated P493-6 cells and normal rat embryo fibroblasts (REFs). Left panel, P493-6 synchronized in G0 by 24 hours treatment of […] doxycycline. Doxycycline was removed and the cells were harvested 48 hours after the addition of fresh medium containing DMSO or 5 μM MYCMI-7. Right panel, flow cytometry analysis of normal REFs treated with DMSO or 5 μM MYCMI-7. B) Apoptosis assay using the Cell Death Detection ELISA^plus kit. Left panel, immortalized Rat1 fibroblasts with different MYC status after 24 hours of 5 μM MYCMI-7 treatment, middle panel and right panels, normal REFs and normal peripheral blood lymphocytes, respectively, after 24 and 48 hours of 5 μM MYCMI-7 treatment. C) Measurement of viability and apoptosis by Apo-Tox Glo Triplex assay in A375 melanoma cells after 3 days of treatment with MYCMI-7 with the indicated concentrations. […] E) NHDFs treated with 3 μM MYCMI-7 for 72 hrs. Viability was measured by trypan blue exclusion assay. F) Cell growth measured with Cyt62 assay of primary normal human epidermal melanocytes (NHEM) treated for 72 hours with MYCMI-7, G) Viability measured by trypan blue exclusion assay of NHEM after treatment for 72 hours with MYCMI-7.
# [1] = tested on: Normal human dermal fibroblasts (NHDF); assay: resazurin, cell count and trypan blue, NHDF; assay type: cell-based
# Description: as §1
# [2] = oxidative metabolism in human liver microsomes
# Description: First, we performed a pharmacokinetic study of the behavior of the molecule in mice.
# FRA1:JUN interaction = molecular target: T1, FRA1:JUN interaction (Homo sapiens, UniProt P05412+P15407); assay: in situ proximity ligation assay (isPLA), FRA1:JUN; assay type: cell-based; conditions: 5 μM, 24 hours, MCF-7 cells
# T1 construct: endogenous in cells; host or cells: MCF7
# T1 sequence (P15407 whole entry): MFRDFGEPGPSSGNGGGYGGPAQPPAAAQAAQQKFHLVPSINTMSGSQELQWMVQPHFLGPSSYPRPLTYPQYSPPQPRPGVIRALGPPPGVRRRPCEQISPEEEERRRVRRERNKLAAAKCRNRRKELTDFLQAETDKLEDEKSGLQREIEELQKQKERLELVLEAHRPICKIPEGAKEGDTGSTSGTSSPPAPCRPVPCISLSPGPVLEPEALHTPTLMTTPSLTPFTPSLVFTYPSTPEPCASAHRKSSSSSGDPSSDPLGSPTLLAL
# T1 sequence (P05412 whole entry): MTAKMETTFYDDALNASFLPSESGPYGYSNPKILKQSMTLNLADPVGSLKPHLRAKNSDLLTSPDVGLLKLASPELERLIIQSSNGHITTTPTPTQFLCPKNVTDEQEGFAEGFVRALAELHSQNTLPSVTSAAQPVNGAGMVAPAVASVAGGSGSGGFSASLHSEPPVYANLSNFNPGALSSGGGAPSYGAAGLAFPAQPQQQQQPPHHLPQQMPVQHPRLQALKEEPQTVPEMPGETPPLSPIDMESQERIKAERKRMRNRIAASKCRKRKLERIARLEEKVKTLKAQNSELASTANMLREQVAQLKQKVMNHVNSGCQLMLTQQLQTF
# Recombinant human Top2a = Recombinant human Top2a (Homo sapiens, UniProt P11388); assay: Top2 decatenation assay; assay type: biochemical; conditions: in vitro decatenation of kDNA
# Recombinant human Top2a, sequence (P11388 whole entry): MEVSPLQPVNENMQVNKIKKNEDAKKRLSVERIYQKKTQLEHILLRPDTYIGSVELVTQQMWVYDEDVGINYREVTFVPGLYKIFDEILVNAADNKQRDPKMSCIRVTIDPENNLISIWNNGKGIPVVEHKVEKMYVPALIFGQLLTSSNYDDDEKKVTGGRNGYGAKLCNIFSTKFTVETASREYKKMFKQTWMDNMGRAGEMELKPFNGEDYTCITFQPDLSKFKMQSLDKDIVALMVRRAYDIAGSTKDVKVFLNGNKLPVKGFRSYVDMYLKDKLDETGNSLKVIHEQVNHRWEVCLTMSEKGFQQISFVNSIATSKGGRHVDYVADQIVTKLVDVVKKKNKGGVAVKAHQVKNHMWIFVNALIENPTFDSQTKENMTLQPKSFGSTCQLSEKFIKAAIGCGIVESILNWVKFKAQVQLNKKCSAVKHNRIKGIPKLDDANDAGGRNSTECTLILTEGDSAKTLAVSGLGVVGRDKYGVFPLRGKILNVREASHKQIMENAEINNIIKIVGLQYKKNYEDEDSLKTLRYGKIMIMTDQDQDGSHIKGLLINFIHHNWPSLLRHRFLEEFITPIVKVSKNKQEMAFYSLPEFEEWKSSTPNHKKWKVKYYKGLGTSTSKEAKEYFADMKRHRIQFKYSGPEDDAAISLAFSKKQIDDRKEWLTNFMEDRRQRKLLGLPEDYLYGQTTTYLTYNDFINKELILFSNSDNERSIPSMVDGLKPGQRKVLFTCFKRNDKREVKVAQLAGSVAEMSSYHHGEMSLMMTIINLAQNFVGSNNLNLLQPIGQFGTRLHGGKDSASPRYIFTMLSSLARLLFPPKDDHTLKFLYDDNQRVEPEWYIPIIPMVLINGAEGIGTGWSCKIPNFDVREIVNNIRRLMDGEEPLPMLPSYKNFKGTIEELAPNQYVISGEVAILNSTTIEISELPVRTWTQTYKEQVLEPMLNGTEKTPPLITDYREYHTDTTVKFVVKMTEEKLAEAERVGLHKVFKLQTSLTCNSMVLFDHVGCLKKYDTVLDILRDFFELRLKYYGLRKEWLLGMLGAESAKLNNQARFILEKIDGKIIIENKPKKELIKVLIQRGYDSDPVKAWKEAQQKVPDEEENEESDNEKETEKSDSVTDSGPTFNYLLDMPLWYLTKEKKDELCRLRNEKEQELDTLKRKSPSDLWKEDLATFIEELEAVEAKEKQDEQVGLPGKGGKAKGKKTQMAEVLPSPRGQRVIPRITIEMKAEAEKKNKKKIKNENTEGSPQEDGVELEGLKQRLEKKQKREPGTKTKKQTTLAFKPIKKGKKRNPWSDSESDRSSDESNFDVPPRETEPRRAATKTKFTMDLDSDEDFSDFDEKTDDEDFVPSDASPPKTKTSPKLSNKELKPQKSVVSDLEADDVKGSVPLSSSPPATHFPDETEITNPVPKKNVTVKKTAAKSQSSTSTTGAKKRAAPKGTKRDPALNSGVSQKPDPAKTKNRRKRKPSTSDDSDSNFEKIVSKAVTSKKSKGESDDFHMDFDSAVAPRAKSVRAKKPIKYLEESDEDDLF
# Description: Top2 decatenation assay: Recombinant human Top2a (15 nM) was incubated with 80 ng catenated kinetoplast DNA (Topogen, TG2013) in Top2 reaction buffer (50 mM Tris pH8, 150 mM NaCl, 10 mM MgCl2, 0.5 mM DTT, 30 μg/ml BSA) with 1-100 μM of either doxorubicin, MYCMI-7, ellipticine or camptothecin for 10 minutes at 37° C. Drug dilutions were made in a DMSO/H2O solution so that a final concentration of 1% DMSO was consistent across all samples. The reaction was stopped with the addition of SDS to a final concentration of 1% and the Top2a was digested by Proteinase K at 55° C. for 10 minutes. DNA was purified by phenol:chloroform extraction before running on a 1% agarose gel either containing or post-stained with 0.5 μg/ml ethidium bromide. The decatenated products were quantified, normalised to the Top2α+DMSO control and plotted using GraphPad Prism.
# First, we utilized an in vitro TOP2A decatenation assay. TOP2 enzymes decatenate kinetoplast DNA (kDNA) converting a network of interlocking DNA rings into individual rings that can be separated by agarose gel electrophoresis.
# [3] = tested on: Burkitt's lymphoma cell lines; assay: growth of Burkitt's lymphoma cell lines; assay type: cell-based
# Description: Cell culture and transfection: HeLa, MCF7, MDA-MB-231, U20S, HCT116, SK-N-F1, SK-N-RA, SK-N-AS, COS-7, Rat1 fibroblasts (Tgrl, H015.19 and HOMYC3), primary rat embryonic fibroblasts (REFs) were maintained in DMEM and Kelly, IMR-32, SK-N-DZ, P493-6, Daudi, CA46 and Ramos were kept in RPMI. In addition, the medium for H015.19 and primary REFs contained 1% sodium pyruvate. […] U20S-MYC-ER cell lines were cultured in phenol-red free DMEM and treated with 100 nM 4-hydroxytamoxifen (4-OHT) (Sigma-Aldrich) to activate MYC-ER. […] Transfection of HeLa cells was performed using Lipofectamine 2000 reagent (Invitrogen) according to manufacturer's instructions. For transfection of 293-T, U20S and REFs, FuGene6 (ROCHE) was used in accordance with manufacturer's recommendations. The proteasome inhibitor Z-leu-leu-leu-H aldehyde ([…]) (Peptides International) was used at 40 μM concentration.
# [4] = tested on: Rat1 fibroblasts TGR1 (wt MYC) and HOMyc3 (reconstituted MYC); assay: WST-1 growth/viability assay, MYC-expressing Rat1 fibroblasts; assay type: cell-based, rat; conditions: Rattus norvegicus, TGR1, 48 h, read-out: GI50 (average growth inhibition of 50%)
# Description: A) Immortalized Rat1 fibroblasts with different MYC status; TGR1 (wt MYC), HO15.19 (MYC−/−) and HOMyc3 (HO15.19 with reconstituted MYC) were treated with indicated concentrations of MYCMI-7 for 48 hours. Cell proliferation/viability/metabolic activity was measured using the WST-1 assay. […] “Responsive” and “less responsive”; cell lines with positive and negative log 10 GI50 values, respectively. […] For the WST-1 assays the average of three different experiments performed in triplicates is shown.
# Cell growth and viability assays: Cell growth and viability was estimated in triplicates with WST-1 (Roche) or Resazurin sodium salt (Sigma-Aldrich) assays in medium at 37° C. and 5% CO2 for 2 hours after which absorbance or fluorescence, respectively, was measured with an Omega Fluostar (BMG Labtech) in a 96 well plate format.
# normal REFs = assay: apoptosis assay (Cell Death Detection ELISA), normal REFs; assay type: cell-based, rat; conditions: 5 μM, 24 and 48 hours
# Description: as §1
# [5] = tested on: primary patient derived glioblastoma cells; assay: primary glioblastoma cultures, resazurin assay; conditions: 42 patients, 2D cultures, 72 hours
# Description: A) Primary glioblastoma samples from 42 patient biopsies were cultured for 72 hours in presence of MYCMI-7 at indicated doses and cell growth was measured by the resazurin assay.
# Viability measurements in glioblastoma initiating cell cultures: The adherent human glioblastoma initiating cell cultures (2) were seeded on laminin-coated 384-well microplates (BD Falcon Optilux #353962). […] Cell cultures (45 for screen 2 and 24/29 for screen 3) were plated one day prior to treatment using a Multidrop plate dispenser (ThermoScientific). Drugs were transferred using an ECHO550 non-contact liquid dispenser (Labcyte, USA) to a 384 standard dispensing plate. The substances were subsequently diluted in medium and lifted with a 384 head and a Janus MTD liquid dispenser (PerkinElmer, USA) to the cell plates. The screening experiment was assayed for viability using resazurin (R7017, Sigma Aldrich) after 72 hours of treatment as previously described (3), and detected by a fluorescent plate reader (EnVision multilabel reader, PerkinElmer) at excitation and emission wavelengths of 535/595 nm. As a negative control, DMSO vehicle was added at 4 different concentrations (16 wells/plate) and doxorubicin was used as a positive control (one 11-dose response curve on each plate). Each treatment dose was mapped to their individual exact DMSO concentration for normalization. […]
# [6] = tested on: MYC+RAS-transformed rat embryonic fibroblasts; assay: MYC+RAS transformation of REFs (foci, colonies in semi-solid medium); assay type: cell-based
# Description: For anchorage-independent growth assay, cells were suspended in 250 μl 0.35% SeaPlaque agarose (InVitro) and seeded into 24 well plates which had previously been coated with a bottom layer of 250 μl 0.7% agarose. After 16 days, the colonies were stained with 100 μg/ml MTT (Sigma) overnight and colonies were counted. For foci formation assays, 3×10^4 REFs were seeded into 6 well plates. The following day the cells were transfected with the indicated plasmids (0.3 μg of each, a total of 0.6 μg per well). After another 24 hours compounds were added. The medium was changed every 2-3 days. When the cells had grown into confluency, medium containing 4% serum was added. After 14 days the number of foci was scored.
smiles,measurement,setting,value
"CCN(CC)CC[n+]1ccc2c(C)c3[nH]c4ccccc4c3c(C)c2c1 [MYCMI-7, 2-(5,11-Dimethyl-6H-25-pyrido[4,3-b]carbazol-2-yl)-N,N-diethylethanamine bromide]",GI50,A375 melanoma cells,nanomolar range
same,apoptosis (caspase activation),A375 melanoma cells,induced apoptosis in a dose-dependent manner
same,cell number and metabolic activity normalized to DMSO,"[1]; 3 days, low micromolar concentrations",lower overall cell number and metabolic activity
same,cell viability (trypan blue),[1]; 72 hrs,unaffected
same,stability against oxidative metabolism,[2],stable
same,inhibition of FRA1:JUN interaction (isPLA),FRA1:JUN interaction,not
same,concentration at which TOP2A inhibition starts,Recombinant human Top2a,higher than 10 μM
same,concentration of complete TOP2A inhibition,Recombinant human Top2a,100 µM
same,growth of three Burkitt's lymphoma cell lines,[3],strongly reduced growth
same,GI50,[4],~2000 nM
same,apoptosis,normal REFs,did not induce apoptosis
same,GI50,[5],submicromolar range
same,formation of transformed foci and colonies in semi-solid medium,[6],strongly inhibited
